Data on five compounds can be found in patent publication US20020054861A1, “Method of preparing particularly skin-compatible cosmetic or dematological cleansing preparations” (priority 1999, published 2002).

This experiment relates to skin (inner sides of the forearms). In words: Adsorption of lauryl ether sulfate on the skin in a simulated washing operation (forearm, desorption with Triton X-100, ion-pair chromatography). It counts as in vivo, human. The procedure: The method which we have developed for determining the adsorption of lauryl ether sulfate on the skin simulates a washing operation as occurs, for example, during daily showering: Firstly, the inner sides of the forearms are divided into a number of test areas using insulating tape. The area to be treated is then wetted with approximately 50 ml of mains wafer (T=38±1° C.). The lauryl ether sulfate is then applied. Throughout the application period of 45 s, the test subject distributes the lauryl ether sulfate over the area using 2 fingers in uniform circular movements. At the end of the application period, the test area is rinsed with approximately 950 ml of mains water (T=38±1° C.) and carefully patted dry using a clean cellulose cloth. For the desorption, a plastic ring with an internal diameter of 25 mm is pressed firmly onto the inner side of the test subject's forearm. 1000 μl of a 1% Triton X-100 solution are then introduced into the ring. The tip of a round Teflon-coated spatula is then used to scrape the skin uniformly for 1 min. This leads to suspension of corneocytes. To work up the samples for analysis, the samples are centrifuged and 800 μl of the supernatant are drawn off. The supernatant is analyzed with regard to its lauryl ether sulfate content using ion-pair chromatography. The effectiveness of the desorption method described is 79%, i.e. 79% of the amount of lauryl ether sulfate actually present on the skin are included.

Where [1] appears, read: cosurfactant concentration 3%, added to a lauryl ether sulfate solution.

`CCCCCCCCCCO[C@@H]1O[C@H](CO)[C@@H](O)[C@H](O)[C@H]1O` [Decyl glucoside]: the “Effect on the adsorbed amount of lauryl ether sulfate (reduction)” value (from here on “Effect on the adsorbed amount … (reduction)”) (cosurfactant concentration 5%, added to a lauryl ether sulfate solution) is given as “Reduction by 29%”.

Turning to disodium laureth sulfosuccinate, the “Effect on the adsorbed amount … (reduction)” value under setting [1] was “Reduction by 28%”. Same read-out and setting: the value for sodium cocoamphoacetate was “Reduction by 27%”; that for cocamidopropylbetaine was “Reduction by 31%”.

With `CCCCCCCCCCCC(=O)O` [Lauric acid], the “Effect on the adsorbed amount … (reduction)” value (cosurfactant concentration 1%, pH9, added to a lauryl ether sulfate solution) is on record as “Reduction by 15%”.
